Experimental findings from patent US20260062412A1, “NITROGEN-CONTAINING HETEROCYCLIC COMPOUND HAVING MYT1 INHIBITORY ACTIVITY” (CHUGAI SEIYAKU KABUSHIKI KAISHA, priority 2023, published 2026) are described below.

Structures are written as SMILES. Counter-ions that a name gives are not always drawn.

This assay has as its target MYT1 protein (Homo sapiens (Human), UniProt Q99640). As to the kind of experiment: Test for binding to ATP binding site of MYT1 (Kinase Tracer 178 / Eu-Anti-GST antibody TR-FRET). To be noted: ATP binding site of MYT1, 30 minutes at room temperature. For orientation: TR-FRET usually uses a lanthanide donor and a delayed reading to cut background.

MYT1 protein, sequence (Q99640 whole entry): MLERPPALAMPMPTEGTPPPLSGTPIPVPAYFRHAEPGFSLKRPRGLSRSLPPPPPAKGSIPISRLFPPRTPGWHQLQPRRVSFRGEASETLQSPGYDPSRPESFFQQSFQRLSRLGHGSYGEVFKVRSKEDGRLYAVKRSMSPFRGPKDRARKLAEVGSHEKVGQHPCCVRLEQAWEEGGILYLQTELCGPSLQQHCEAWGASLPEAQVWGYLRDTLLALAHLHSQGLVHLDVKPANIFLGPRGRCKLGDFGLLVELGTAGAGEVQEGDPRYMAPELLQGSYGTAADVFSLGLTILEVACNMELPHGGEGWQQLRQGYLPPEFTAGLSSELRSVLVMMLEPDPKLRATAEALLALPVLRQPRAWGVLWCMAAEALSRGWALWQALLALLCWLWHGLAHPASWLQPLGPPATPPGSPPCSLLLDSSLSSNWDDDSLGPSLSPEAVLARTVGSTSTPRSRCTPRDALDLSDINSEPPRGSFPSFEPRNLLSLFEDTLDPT

Regarding `CN1CCN(c2cc3c(-c4ccc(F)c5[nH]ncc45)c(N)c(=O)[nH]c3c3cccnc23)CC1` [Compound C114, 3-Amino-4-(7-fluoro-1H-indazol-4-yl)-6-(4-methylpiperazin-1-yl)-1H-1,7-phenanthrolin-2-one], the IC50 (as a rule, the midpoint of a concentration-inhibition curve) is 2 nM. Under `Nc1c(-c2ccc(F)c3[nH]ncc23)c2cc(N3CCC(F)(F)C3)c3ncccc3c2[nH]c1=O` [Compound C115, 3-Amino-6-(3,3-difluoropyrrolidin-1-yl)-4-(7-fluoro-1H-indazol-4-yl)-1H-1,7-phenanthrolin-2-one] stands 3.7 nM; under `Nc1c(-c2ccc(F)c3[nH]ncc23)c2cc(N3CCC(O)C3)c3ncccc3c2[nH]c1=O` (centres unmarked) [Compound C116, 3-Amino-4-(7-fluoro-1H-indazol-4-yl)-6-(3-hydroxypyrrolidin-1-yl)-1H-1,7-phenanthrolin-2-one], 2.7 nM. Under `Nc1c(-c2ccc(F)c3[nH]ncc23)c2cc(N3CCC(N4CCOCC4)CC3)c3ncccc3c2[nH]c1=O` [Compound C117, 3-Amino-4-(7-fluoro-1H-indazol-4-yl)-6-(4-morpholin-4-ylpiperidin-1-yl)-1H-1,7-one] stands 3.5 nM; under `Nc1c(-c2ccc(F)c3[nH]ncc23)c2cc(N3CC4(COC4)C3)c3ncccc3c2[nH]c1=O` [Compound C118, 3-Amino-4-(7-fluoro-1H-indazol-4-yl)-6-(2-oxa-6-azaspiro[3,3]heptan-6-yl)-1H-1,7-one], 2.3 nM; under `Nc1c(-c2ccc(F)c3[nH]ncc23)c2cc(N3CCC(N4CCCC4)CC3)c3ncccc3c2[nH]c1=O` [Compound C119, 3-Amino-4-(7-fluoro-1H-indazol-4-yl)-6-(4-pyrrolidin-1-ylpiperidin-1-yl)-1H-1,7-phenanthrolin-2-one], 2.2 nM. In the case of `Nc1c(-c2ccc(F)c3[nH]ncc23)c2cc(N3CCC4(COC4)C3)c3ncccc3c2[nH]c1=O` [Compound C120, 3-Amino-4-(7-fluoro-1H-indazol-4-yl)-6-(2-oxa-7-azaspiro[3.4]octan-7-yl)-1H-1,7-one], the IC50 is 2.9 nM. For `Nc1c(-c2ccc(F)c3[nH]ncc23)c2cc(N3CCC3)c3ncccc3c2[nH]c1=O` [Compound C121, 3-Amino-6-(azetidin-1-yl)-4-(7-fluoro-1H-indazol-4-yl)-1H-1,7-phenanthrolin-2-one], the IC50 came out at 3 nM. This IC50 and that of the compound before are within 1.5-fold of each other. `Nc1c(-c2ccc(F)c3[nH]ncc23)c2cc(N3CCOCC3)c3ncccc3c2[nH]c1=O` [Compound C122, 3-Amino-4-(7-fluoro-1H-indazol-4-yl)-6-morpholin-4-yl-1H-1,7-phenanthrolin-2-one 2,2,2-trifluoroacetate]: the IC50 is 4.5 nM. Against the preceding compound, the IC50 is about 1.5-fold higher.

As for `Nc1c(-c2ccc(F)c3[nH]ncc23)c2cc(N3CC(F)(F)C3)c3ncccc3c2[nH]c1=O` [Compound C123, 3-Amino-6-(3,3-difluoroazetidin-1-yl)-4-(7-fluoro-1H-indazol-4-yl)-1H-1,7-phenanthrolin-2-one], the IC50 came to 3.4 nM.

On to `Nc1c(-c2ccc(F)c3[nH]ncc23)c2cc(N3CCS(=O)(=O)CC3)c3ncccc3c2[nH]c1=O` [Compound C124, 3-Amino-6-(1,1-dioxo-1,4-thiazinan-4-yl)-4-(7-fluoro-1H-indazol-4-yl)-1H-1,7-phenanthrolin-2-one], for which the IC50 amounted to 3.4 nM. For `Nc1c(-c2ccc(F)c3[nH]ncc23)c2cc(N3CCCCC3)c3ncccc3c2[nH]c1=O` [Compound C125, 3-Amino-4-(7-fluoro-1H-indazol-4-yl)-6-piperidin-1-yl-1H-1,7-phenanthrolin-2-one], the half-maximal inhibitory concentration (IC50) came out at 5.9 nM.

`Nc1c(-c2ccc(F)c3[nH]ncc23)c2cc(N3CCC(F)(F)CC3)c3ncccc3c2[nH]c1=O` [Compound C126, 3-Amino-6-(4,4-difluoropiperidin-1-yl)-4-(7-fluoro-1H-indazol-4-yl)-1H-1,7-phenanthrolin-2-one]: the IC50 was 4.7 nM. The IC50 values of the last two compounds are within 1.5-fold of each other. Under `CS(=O)(=O)Nc1cc2c(-c3ccc(F)c4[nH]ncc34)c(N)c(=O)[nH]c2c2cccnc12` [Compound C127, N-[3-Amino-4-(7-fluoro-1H-indazol-4-yl)-2-oxo-1H-1,7-phenanthrolin-6-yl]methanesulfonamide] stands 1.5 nM. `Nc1c(-c2ccc(F)c3[nH]ncc23)c2cc(N3CC4CC(C3)O4)c3ncccc3c2[nH]c1=O` [Compound C128, 3-Amino-4-(7-fluoro-1H-indazol-4-yl)-6-(6-oxa-3-azabicyclo[3.1.1]heptan-3-yl)-1H-1,7-phenanthrolin-2-one] came in with an IC50 of 5.8 nM.

Compound `Nc1c(-c2ccc(F)c3[nH]ncc23)c2cc(N3C4COCC3C4)c3ncccc3c2[nH]c1=O` [Compound C129, 3-Amino-4-(7-fluoro-1H-indazol-4-yl)-6-(3-oxa-6-azabicyclo[3.1.1]heptan-6-yl)-1H-1,7-one] yielded a concentration for half-maximal inhibition (IC50) of 3.3 nM. Compared with the last compound, the IC50 is about 1.8-fold lower. `Nc1c(-c2ccc(F)c3[nH]ncc23)c2cc(NS(=O)(=O)C3CC3)c3ncccc3c2[nH]c1=O` [Compound C130, N-[3-amino-4-(7-fluoro-1H-indazol-4-yl)-2-oxo-1H-1,7-phenanthrolin-6-yl]cyclopropanesulfonamide] came in with a 50% inhibitory concentration (IC50) of 3.7 nM.

In turn, `Nc1c(-c2ccc(F)c3[nH]ncc23)c2cc(N3CCC(C(F)(F)F)CC3)c3ncccc3c2[nH]c1=O` [Compound C131, 3-Amino-4-(7-fluoro-1H-indazol-4-yl)-6-[4-(trifluoromethyl)piperidin-1-yl]-1H-1,7-phenanthrolin-2-one] came in with a half-inhibitory concentration (IC50) of 33 nM.

For the compound `Nc1c(-c2ccc(F)c3[nH]ncc23)c2cc(C3CNC3)c3ncccc3c2[nH]c1=O` [Compound C132, 3-Amino-6-(azetidin-3-yl)-4-(7-fluoro-1H-indazol-4-yl)-1H-1,7-phenanthrolin-2-one; formate], the IC50 was found to be 11 nM. With `Nc1c(-c2ccc(F)c3[nH]ncc23)c2cc(C3CCNCC3)c3ncccc3c2[nH]c1=O` [Compound C133, 3-Amino-4-(7-fluoro-1H-indazol-4-yl)-6-piperidin-4-yl-1H-1,7-phenanthrolin-2-one; hydrochloride], the IC50 is 1.7 nM. Under `CC1(c2cc3c(-c4ccc(F)c5[nH]ncc45)c(N)c(=O)[nH]c3c3cccnc23)CC1` [Compound C142, 3-Amino-4-(7-fluoro-1H-indazol-4-yl)-6-(1-methylcyclopropyl)-1H-1,7-phenanthrolin-2-one] stands 18 nM. Next, `Nc1c(-c2ccc(F)c3[nH]ncc23)c2cc(C3CC3(F)F)c3ncccc3c2[nH]c1=O` (centres unmarked) [Compound C145, 3-Amino-6-(2,2-difluorocyclopropyl)-4-(7-fluoro-1H-indazol-4-yl)-1H-1,7-phenanthrolin-2-one]: 3.1 nM; `Nc1c(-c2ccc(Cl)c3[nH]ncc23)c2cc(C3CCC3)c3ncccc3c2[nH]c1=O` [Compound C147, 3-Amino-4-(7-chloro-1H-indazol-4-yl)-6-cyclobutyl-1H-1,7-phenanthrolin-2-one]: 5.2 nM; `N#Cc1cc2c(-c3ccc(Cl)c4[nH]ncc34)c(N)c(=O)[nH]c2c2cccnc12` [Compound C148, 3-Amino-4-(7-chloro-1H-indazol-4-yl)-2-oxo-1H-1,7-phenanthroline-6-carbonitrile]: 4.1 nM. The compound `N#Cc1cc2c(-c3ccc(C#N)c4[nH]ncc34)c(N)c(=O)[nH]c2c2cccnc12` [Compound C149, 3-Amino-4-(7-cyano-1H-indazol-4-yl)-2-oxo-1H-1,7-phenanthroline-6-carbonitrile] had an IC50 of 380 nM. This IC50 is about 93-fold higher than that of the compound before. Next, `CCc1cc2c(-c3ccc(Cl)c4[nH]ncc34)c(N)c(=O)[nH]c2c2cccnc12` [Compound C150, 3-Amino-4-(7-chloro-1H-indazol-4-yl)-6-ethyl-1H-1,7-phenanthrolin-2-one]: 1.9 nM.

`Nc1c(-c2ccc(Cl)c3[nH]ncc23)c2cc(C3CCCC3)c3ncccc3c2[nH]c1=O` [Compound C151, 3-Amino-4-(7-chloro-1H-indazol-4-yl)-6-cyclopentyl-1H-1,7-phenanthrolin-2-one] displayed an IC50 of 10 nM. The compound `Cc1cc2c(-c3ccc(Cl)c4[nH]ncc34)c(N)c(=O)[nH]c2c2cccnc12` [Compound C152, 3-Amino-4-(7-chloro-1H-indazol-4-yl)-6-methyl-1H-1,7-phenanthrolin-2-one] came in with an IC50 of 4 nM. Against the preceding compound, the IC50 is about 2.5-fold lower.

In turn, `Cc1cc2c(-c3ccc(C)c4[nH]ncc34)c(N)c(=O)[nH]c2c2cccnc12` [Compound C153, 3-Amino-6-methyl-4-(7-methyl-1H-indazol-4-yl)-1H-1,7-phenanthrolin-2-one] yielded an IC50 of 4.4 nM.

On to `Nc1c(-c2c(F)ccc3[nH]ncc23)c2cc(Br)c3ncccc3c2[nH]c1=O` [Compound C154, 3-Amino-6-bromo-4-(5-fluoro-1H-indazol-4-yl)-1H-1,7-phenanthrolin-2-one], for which the IC50 amounted to 3.3 nM. Regarding `Nc1c(-c2ccc(F)c3[nH]ncc23)c2cc(C3CCOC3)c3ncccc3c2[nH]c1=O` (centres unmarked) [Compound C159, 3-Amino-4-(7-fluoro-1H-indazol-4-yl)-6-(oxolan-3-yl)-1H-1,7-phenanthrolin-2-one], the IC50 worked out at 2.3 nM. In the case of `Nc1c(-c2ccc(F)c3[nH]ncc23)c2cc(CCCF)c3ncccc3c2[nH]c1=O` [Compound C160, 3-Amino-4-(7-fluoro-1H-indazol-4-yl)-6-(3-fluoropropyl)-1H-1,7-phenanthrolin-2-one], the IC50 amounted to 2.5 nM.

As for `Nc1c(-c2ccc(F)c3[nH]ncc23)c2cc(CCC(F)(F)F)c3ncccc3c2[nH]c1=O` [Compound C161, 3-Amino-4-(7-fluoro-1H-indazol-4-yl)-6-(3,3,3-trifluoropropyl)-1H-1,7-phenanthrolin-2-one], the 50% inhibitory concentration (IC50) is 8.6 nM. `Nc1c(-c2ccc(F)c3[nH]ncc23)c2cc(C3CCC(F)(F)C3)c3ncccc3c2[nH]c1=O` (centres unmarked) [Compound C162, 3-Amino-6-(3,3-difluorocyclopentyl)-4-(7-fluoro-1H-indazol-4-yl)-1H-1,7-phenanthrolin-2-one] gave an IC50 of 12 nM.

Take `Nc1c(-c2ccc(F)c3[nH]ncc23)c2cc(C3CCC(F)(F)CC3)c3ncccc3c2[nH]c1=O` [Compound C163, 3-Amino-6-(4,4-difluorocyclohexyl)-4-(7-fluoro-1H-indazol-4-yl)-1H-1,7-phenanthrolin-2-one]: the IC50 worked out at 24 nM.
